Reference: ChEMBL document CHEMBL4257490, “Development of a peptide-based bifunctional chelator conjugated to a cytotoxic drug for the treatment of melanotic melanoma” (Medchemcomm, 2018)
Active and inactive are the calls of the source. The calls are words filed in the database; no cut-off is given here.

What was measured:
B16-F10 [1] = test: Cytotoxicity against mouse B16F10 cells assessed as decrease in cell viability after 72 hrs by MTT assay; assay type: functional, cell-based; details: B16-F10, 72 h
B16-F10 [2] = test: Antitumor activity against mouse B16F10 cells allografted in Balb/c mouse assessed as tumor growth inhibition at 25 mg/kg, iv administered thrice weekly for 21 days starting on day 10 post tumor implantation relative to control; assay type: functional; details: read-out: TGI
B16-F10 [3] = test: Induction of apoptosis in mouse B16F10 cells assessed as necrotic cells at IC50 after 72 hrs by annexin V-FITC/propidium iodide staining-based flow cytometric method relative to control; assay type: functional
Mus musculus = test: Toxicity in mouse B16F10 cells allografted Balb/c mouse assessed as effect on body weight at 25 mg/kg, iv administered thrice weekly for 21 days starting on day 10 post tumor implantation (reference value: 30.52 +/- 2.9 g); assay type: organism-based; details: in vivo, 504 h
B16-F10 [4] = test: Induction of apoptosis in mouse B16F10 cells assessed as nuclear fragmentation at IC50 after 72 hrs by DAPI staining-based fluorescence microscopic method; assay type: functional, cell-based
B16-F10 [5] = test: Induction of apoptosis in mouse B16F10 cells at IC50 after 72 hrs by annexin V-FITC/propidium iodide staining-based flow cytometric method relative to control; assay type: functional

Nc1ccn([C@@H]2O[C@H](CO)[C@@H](O)C2(F)F)c(=O)n1 [GEMCITABINE]
IC50 (B16-F10 [1]): 0.26 µM | inhibition in vivo at 25 mg/kg (B16-F10 [2]): 37% | Activity (B16-F10 [3]): 12 - 14% | Activity (Mus musculus): 28.65 g | Activity (B16-F10 [4]): Active | Activity (B16-F10 [5]): 26%
